Data reported in patent US7465556B2, “Method of immunoassay tartrate resistant acid phosphatase 5b and kit to be used therein” (Nitto Boseki Co., Ltd., priority 2003, dated 2008).

Key:
[1] = target: T1, TRACP 5a (Homo sapiens, UniProt P13686); settings: pH 5.2; according to Clin. Chem., 47(1), 74-80; cited from earlier work
T1 construct: TRACP 5a derived from human serum and eluted from a HiTrap Heparin HP column; from tissue; host or cells: human serum, heparin column fraction
T1 sequence (P13686 22-325): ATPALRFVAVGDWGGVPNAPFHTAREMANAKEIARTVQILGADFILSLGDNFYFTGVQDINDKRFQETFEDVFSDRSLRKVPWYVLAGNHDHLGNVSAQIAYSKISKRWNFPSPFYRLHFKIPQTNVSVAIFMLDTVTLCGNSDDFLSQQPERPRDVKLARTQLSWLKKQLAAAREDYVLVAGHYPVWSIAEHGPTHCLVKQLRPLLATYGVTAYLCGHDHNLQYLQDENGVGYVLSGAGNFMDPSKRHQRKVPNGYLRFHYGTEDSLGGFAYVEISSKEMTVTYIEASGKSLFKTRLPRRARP

[2] = test system: TRACP 5b; test: Enzymatic activity of TRACP 5b bound to immobilized anti-TRACP 5b antibody plate, end-point absorbance; assay type: biochemical, human
Method: (§1) The pH of a buffer solution containing a substrate CNPP was varied from 5.6 to 6.8 and the activity of TRACP 5b and TRACP 5a for this substrate was assayed. This substrate buffer solution had the following composition: CNPP 5 mM, Mes 0.1 M and sodium tartrate 40 mM. Its pH was adjusted to values varying from 5.6 to 6.8 by steps of 0.2. TRACP 5b and TRACP 5a used as samples were prepared by separating human serum by the use of a Heparin column and concentrating a fraction corresponding to a peak due to each of TRACP 5a and TRACP 5b. As TRACP 5a, there was used a sample having such a concentration that its absorbance was 0.8 at pH 5.6 (the optimum for TRACP 5a). As TRACP 5b, there was used a sample having such a concentration that its absorbance was 0.8 at pH 6.4 (the optimum for TRACP 5b). As to a method for the assay, a plate having an anti-TRACP 5b antibody Trk27 immobilized thereon was used and 100 μl of each sample was added to each well and stirred with shaking at room temperature for 1 hour. Then, the reaction solution was discarded and each well was washed three times with 200 μl of Tris buffer containing 0.05% Tween 20. Thereafter, 100 μl of the substrate buffer solution was added to each well and shaken for 30 seconds, followed by incubation in an incubator at 37° C. for 1 hour. Then, 50 μl of 0.2N NaOH was added to each well to terminate the enzyme reaction and the absorbance of the reaction solution was measured with a microtiter plate reader. Under such conditions, the optimum pH for TRACP 5b was about 6.4 and that for TRACP 5a was 5.6.
(§2) Absorbance values due to the reaction of a buffer solution containing a substrate CNPP with each of TRACP 5a and TRACP 5b at pHs 6.2, 6.4, 6.6 and 6.8 were compared with results obtained in a comparative example using a buffer solution (pH 6.1) containing, as a substrate, PNPP that is considered suitable for the assay of TRACP 5b. According to the method disclosed in Japanese Patent Application Kohyo No. 2002-510050, the composition of this PNPP substrate buffer solution was as follows: PNPP 8 mM, sodium acetate 0.1M, sodium tartrate 40 mM, pH 6.1. As a sample of TRACP 5b, the same sample as in Example 1 was used. As a sample of TRACP 5a, a sample was used which had been prepared so that in the comparative example (PNPP was used at pH 6.1), a value for TRACP 5a might be one-tenth that for TRACP 5b according to the data disclosed in Japanese Patent Application Kohyo No. 2002-510050. The same assay procedure as in Example 1 was carried out and absorbance was used as an indication of the enzymatic activity.

[3] = target: T1, TRACP 5a; test: Enzymatic activity of TRACP 5a bound to immobilized anti-TRACP 5b antibody plate, end-point absorbance; assay type: biochemical
Method: as §1, §2

[4] = target: T2, TRACP 5b (Homo sapiens, UniProt P13686); settings: pH 5.8; according to Clin. Chem., 47(1), 74-80; cited from earlier work
T2 sequence (P13686 22-325): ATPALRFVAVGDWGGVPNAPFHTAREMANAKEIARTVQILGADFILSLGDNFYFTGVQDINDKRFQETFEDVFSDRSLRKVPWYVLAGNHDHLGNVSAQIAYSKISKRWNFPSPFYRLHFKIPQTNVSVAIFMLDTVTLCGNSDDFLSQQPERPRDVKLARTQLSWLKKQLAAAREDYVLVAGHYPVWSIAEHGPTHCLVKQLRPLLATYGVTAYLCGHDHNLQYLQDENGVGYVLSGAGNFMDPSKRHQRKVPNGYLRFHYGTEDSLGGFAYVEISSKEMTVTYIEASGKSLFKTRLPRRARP

[5] = test system: TRACP 5b; test: Enzymatic activity of TRACP 5b bound to immobilized anti-TRACP 5b antibody plate, end-point absorbance; assay type: biochemical, human; settings: pH 6.9
[6] = substrate: O=[N+]([O-])c1ccc(OP(=O)(O)O)c(Cl)c1; test: Km measurement of substrate with TRACP 5b; assay type: biochemical, human; settings: other: pH 6.4
Method: (§3) In order to investigate the difference between TRACP 5b and TRACP 5a in reactivity with 2-chloro-4-nitrophenylphosphoric acid (CNPP), Km for each of them was measured.
(§4) That is, for the assay of TRACP 5b, CNPP used in the present invention is more advantageous than PNPP from the viewpoint of affinity and specificity.

[7] = substrate: O=[N+]([O-])c1ccc(OP(=O)(O)O)c(Cl)c1; test: Km measurement of substrate with TRACP 5a; assay type: biochemical, human; settings: other: pH 5.6
Method: as §3, §4

[8] = pH 6.1, PNPP 8 mM, sodium acetate 0.1M, sodium tartrate 40 mM

O=[N+]([O-])c1ccc(OP(=O)(O)O)cc1 [PNPP, p-nitrophenylphosphoric acid, reference compound]
Km [1]: 1900 µM | TRACP 5b/5a ratio [2, 8]: 10 | absorbance (enzymatic activity), sample TRACP 5b [2, 8]: 0.981 | absorbance (enzymatic activity), sample TRACP 5a ([3]; pH 6.1, PNPP 8 mM, sodium acetate 0.1M, sodium tartrate 40 mM, 5a sample prepared to give one-tenth of 5b value): 0.098 | Km [4]: 7000 µM

O=[N+]([O-])c1ccc(OP(=O)(O)O)c(Cl)c1 [CNPP, 2-chloro-4-nitrophenylphosphoric acid]
TRACP 5b/5a ratio ([2]; pH 6.2): 13 | absorbance (enzymatic activity), sample TRACP 5b ([2]; pH 6.2): 0.802 | TRACP 5b/5a ratio ([2]; pH 6.4): 17 | absorbance (enzymatic activity), sample TRACP 5b ([2]; pH 6.4): 0.811 | TRACP 5b/5a ratio ([2]; pH 6.6): 18 | absorbance (enzymatic activity), sample TRACP 5b ([2]; pH 6.6): 0.674 | TRACP 5b/5a ratio [5]: 16 | absorbance (enzymatic activity), sample TRACP 5b [5]: 0.401 | optimum pH for TRACP 5a ([3]; CNPP 5 mM, Mes 0.1 M, sodium tartrate 40 mM, pH 5.6 to 6.8, 37° C. 1 hour): 5.6 | absorbance (enzymatic activity), sample TRACP 5a ([3]; pH 6.2): 0.062 | absorbance (enzymatic activity), sample TRACP 5a ([3]; pH 6.4): 0.047 | absorbance (enzymatic activity), sample TRACP 5a ([3]; pH 6.6): 0.038 | absorbance (enzymatic activity), sample TRACP 5a ([3]; pH 6.9): 0.025

B1: TRACP 5b (Homo sapiens) (protein)
chain: ATPALRFVAVGDWGGVPNAPFHTAREMANAKEIARTVQILGADFILSLGDNFYFTGVQDINDKRFQETFEDVFSDRSLRKVPWYVLAGNHDHLGNVSAQIAYSKISKRWNFPSPFYRLHFKIPQTNVSVAIFMLDTVTLCGNSDDFLSQQPERPRDVKLARTQLSWLKKQLAAAREDYVLVAGHYPVWSIAEHGPTHCLVKQLRPLLATYGVTAYLCGHDHNLQYLQDENGVGYVLSGAGNFMDPSKRHQRKVPNGYLRFHYGTEDSLGGFAYVEISSKEMTVTYIEASGKSLFKTRLPRRARP
Km [6]: 1500 µM

B2: TRACP 5a (Homo sapiens) (protein)
chain: ATPALRFVAVGDWGGVPNAPFHTAREMANAKEIARTVQILGADFILSLGDNFYFTGVQDINDKRFQETFEDVFSDRSLRKVPWYVLAGNHDHLGNVSAQIAYSKISKRWNFPSPFYRLHFKIPQTNVSVAIFMLDTVTLCGNSDDFLSQQPERPRDVKLARTQLSWLKKQLAAAREDYVLVAGHYPVWSIAEHGPTHCLVKQLRPLLATYGVTAYLCGHDHNLQYLQDENGVGYVLSGAGNFMDPSKRHQRKVPNGYLRFHYGTEDSLGGFAYVEISSKEMTVTYIEASGKSLFKTRLPRRARP
notes: TRACP 5a derived from human serum and eluted from a HiTrap Heparin HP column; from tissue; host or cells: human serum, heparin column fraction
Km [7]: 3500 µM
